Reference: patent US20250313653A1, “GUEST/HOST INCLUSION COMPLEXES CONTAINING S-NITROSOGLUTATHIONE AND METHODS OF USE THEREOF” (VIRGINIA COMMONWEALTH UNIVERSITY, priority 2022, published 2025)
In brackets after ≈: the same amount, converted by molar mass.

Legend:
E. coli = assay: Antibacterial effect of NO release solutions, 3-day exposure; type: cell-based; conditions: silicone surface
Procedure: (§1) Both biofilm and planktonic bacteria were quantified to evaluate the antibacterial activities of the proposed method. LB medium (25 mg/mL) was used to culture all bacterial strains overnight before performing the antibacterial tests. Segments of medical-grade silicone tubes were all autoclaved. Lock solutions were freshly prepared using the sterilized buffer and filtered through a 0.22 m PES syringe filter. The biofilms on the silicone surface were dip-rinsed 5 times in PBS and detached by 1-min vertexing, 1-min sonication (20% power of a 150 W probe sonifier, Branson Ultrasonics), and another 1-min vertexing for plate counting. When quantifying the planktonic bacteria, the suspension was homogenized by 1-min vertexing. […] After plate incubation at 37° C. overnight, colony-forming units (CFU) of bacteria were counted and converted to CFU/cm^2 for biofilm quantification and CFU/mL for planktonic bacteria quantification. […] In our case, the limit of detection (LOD) is 400 CFU/cm^2 for biofilm quantification and 200 CFU/mL for quantification of planktonic bacteria. […] The statistical significance between groups was determined using a student's t-test.
The 0.1 M αCD, 0.1 M GSNO, and 0.1 M GSNO+0.1 M αCD solutions were prepared in LB broth buffered with 0.1 M Na2HPO4 and adjusted to pH 7.4. […] Viable biofilm and planktonic cells were evaluated by plate counting. […]

S. aureus [1] = assay: Prevention of extraluminal biofilm on silicone catheters; type: cell-based; conditions: 3-day experiments, 0.1 M GSNO without or with 0.1 M αCD as lock solution, 37° C.
Procedure: as §1
The overnight S. aureus culture was diluted by LB (0.25 mg/mL) medium to approximately 10^3 CFU/mL. […] The viable bacteria on the outer surface were counted following the treatment.

[2] = administrated in humans, dogs, and rats at appropriate doses; cited from earlier work
[3] = at low pH; cited from earlier work
S. aureus [4] = assay: Agar diffusion assay for the hydrogel containing GSNO; type: cell-based; conditions: agar hydrogel on inoculated LB-agar plate, 24-h incubation at 37° C.
Procedure: Two grams of agar were dissolved in 100 mL of 0.1 M phosphate buffer at pH 7.4 at 80° C. for 3 h with stirring. GSNO solutions at 0.2 M with or without 0.2 M αCD in 0.1 M phosphate buffer at pH 7.4 were prepared separately. Then, 0.5 mL GSNO solution and 0.5 mL dissolved agar were mixed and put into an ice bath to facilitate gelation.
The overnight S. aureus culture was diluted to a density of 0.1 OD600 in PBS. Then, the diluted bacterial inoculum was uniformly spread on an LB-agar plate using a sterile cotton swab. The plate was marked as four separate portions. Forty μL of warm liquid agar with only buffer, GNSO, αCD, or GSNO-αCD (see section 2.5) was added onto a portion of the inoculated plate twice. The agar solution was gelated almost instantly due to the temperature decrease to form a small circular hydrogel area. The bacterial growth was visually examined after 24-h incubation at 37° C.

[5] = NO release from silicone rubber tubes filled with lock solutions; type: physicochemical; conditions: silicone tube filled with 0.1 M GSNO without or with 0.1 M αCD, 37° C.
Procedure: The NO release was quantified by an ECO PHYSICS NO analyzer (nCLD 66). […] of castor oil was added to NO release solutions as an antifoam agent when 3 mL GSNO or GSNO-CD solutions were tested in an amber glass cell at 37° C. Humidified air was vacuumed into the solution to carry NO continuously into the chemiluminescence detection chamber at a flow rate of 100 cm^3/min. The solutions were stored in sealed amber glass vials between measurements at 37° C. To monitor the NO release from catheters, solutions were filled into 2.5 cm-long medical-grade silicone tubes (HelixMark® 60-011-07, 1.58 mm ID, 2.41 mm OD) that were scaled on both ends with plastic rods. The filled tubes were placed into the amber glass cell containing 5 mL of 0.01 M PBS with 0.1 mM EDTA (PBSE) at 37° C. N2 was used as the carrier gas at a flow rate of 100 cm^3/min to introduce NO into the analyzer. Filled tubes were stored in 10 mL PBSE at 37° C. in the dark between measurements. The soaking PBSE solution was refreshed after each measurement.

For `N[C@@H](CCC(=O)N[C@@H](CSN=O)C(=O)NCC(=O)O)C(=O)O` [GSNO, S-nitrosoglutathione], the “reduction of E. coli biofilm” value (E. coli) is listed as 79%, the “reduction of bacterial biofilm on the outer catheter surface compared to control solutions” value (S. aureus [1]) is listed as 70% and the “toxicities in in vivo studies” value [2] is listed as “did not reveal any toxicities”. The aqueous solubility [3] was 75 mM (≈ 25.2 mg/mL), the “S. aureus growth on the hydrogel” value (S. aureus [4]) was “grows less bacteria” and the “initial release of NO on day 0” value [5] was 14.8×10^−10 mol cm^−2 min^−1. For the same compound, the “duration of NO release over 0.1×10^−10 mol cm^−2 min^−1 from the catheter exterior” value ([5]; in pH 7.4 PBSE) was 6 days.
